Measured values reported in ChEMBL document CHEMBL4732135, “Structural and mechanistic insights into the inhibition of amyloid-β aggregation by Aβ fragment derived synthetic peptides” (Eur J Med Chem, 2021).
Calls of active or inactive are those of the source. No cut-off for these calls is given here. Square brackets hold non-standard residues; d marks the D form. Peptide text beside a SMILES is read from it. ξ: configuration not given here. Oic(3aξ,7aξ) = O=C(O)[C@@H]1CC2CCCCC2N1; Phe(4-F) = N[C@@H](Cc1ccc(F)cc1)C(=O)O; 1Nal = N[C@@H](Cc1cccc2ccccc12)C(=O)O

How the values were obtained:
[1] = tested on: PC-12; test: Neuroprotective activity against amyloid beta 42-induced toxicity in rat PC-12 cells assessed as cell viability at 10 uM measured after 6 hrs by MTT assay (reference value: 74.05%); type: functional; details: read-out: Activity
[2] = tested on: PC-12; test: Neuroprotective activity against amyloid beta 42-induced toxicity in rat PC-12 cells assessed as cell viability at 4 uM measured after 6 hrs by MTT assay (reference value: 74.05%); type: functional; details: read-out: Activity
[3] = tested on: PC-12; test: Neuroprotective activity against amyloid beta 42-induced toxicity in rat PC-12 cells assessed as cell viability at 2 uM measured after 6 hrs by MTT assay (reference value: 74.05%); type: functional; details: read-out: Activity
[4] = target: Amyloid-beta precursor protein (Homo sapiens) (UniProt P05067); test: Inhibition of amyloid beta (1 to 42) (unknown origin) assessed as reduction in peptide aggregation at 10 uM measured after 24 hrs by thioflavin-T fluorescence assay relative to control
[5] = target: Amyloid-beta precursor protein (Homo sapiens) (UniProt P05067); test: Inhibition of amyloid beta (1 to 42) (unknown origin) assessed as reduction in peptide aggregation at 4 uM measured after 24 hrs by thioflavin-T fluorescence assay relative to control
[6] = target: Amyloid-beta precursor protein (Homo sapiens) (UniProt P05067); test: Inhibition of amyloid beta (1 to 42) (unknown origin) assessed as reduction in peptide aggregation at 2 uM measured after 24 hrs by thioflavin-T fluorescence assay relative to control
[7] = target: Amyloid-beta precursor protein (Homo sapiens) (UniProt P05067); test: Inhibition of amyloid beta (1 to 42) (unknown origin) aggregation assessed as relative fluorescence unit at 10 uM measured after 24 hrs by thioflavin-T fluorescence assay (reference value: 100%)
[8] = target: Amyloid-beta precursor protein (Homo sapiens) (UniProt P05067); test: Inhibition of amyloid beta (1 to 42) (unknown origin) aggregation assessed as relative fluorescence unit at 4 uM measured after 24 hrs by thioflavin-T fluorescence assay (reference value: 100%)
[9] = target: Amyloid-beta precursor protein (Homo sapiens) (UniProt P05067); test: Inhibition of amyloid beta (1 to 42) (unknown origin) aggregation assessed as relative fluorescence unit at 2 uM measured after 24 hrs by thioflavin-T fluorescence assay (reference value: 100%)
[10] = tested on: Cortical neurone; test: Neuroprotective activity against amyloid beta 42-induced toxicity in rat primary cortical neurons at 0.1 uM; type: functional, cell-based
[11] = tested on: PC-12; test: Neuroprotective activity against amyloid beta 42-induced toxicity in rat PC-12 cells assessed as cell viability at 1 uM measured after 6 hrs by MTT assay (reference value: 73.8%); type: functional; details: read-out: Activity
[12] = tested on: PC-12; test: Neuroprotective activity against amyloid beta 42-induced toxicity in rat PC-12 cells assessed as cell viability at 0.5 uM measured after 6 hrs by MTT assay (reference value: 73.8%); type: functional; details: read-out: Activity
[13] = tested on: PC-12; test: Neuroprotective activity against amyloid beta 42-induced toxicity in rat PC-12 cells assessed as cell viability at 0.1 uM measured after 6 hrs by MTT assay (reference value: 73.8%); type: functional; details: read-out: Activity
[14] = target: Amyloid-beta precursor protein (Homo sapiens) (UniProt P05067); test: Inhibition of amyloid beta (1 to 42) (unknown origin) assessed as reduction in peptide aggregation at 1 uM measured after 24 hrs by thioflavin-T fluorescence assay relative to control
[15] = target: Amyloid-beta precursor protein (Homo sapiens) (UniProt P05067); test: Inhibition of amyloid beta (1 to 42) (unknown origin) assessed as reduction in peptide aggregation at 0.5 uM measured after 24 hrs by thioflavin-T fluorescence assay relative to control
[16] = target: Amyloid-beta precursor protein (Homo sapiens) (UniProt P05067); test: Inhibition of amyloid beta (1 to 42) (unknown origin) assessed as reduction in peptide aggregation at 0.1 uM measured after 24 hrs by thioflavin-T fluorescence assay relative to control
[17] = target: Amyloid-beta precursor protein (Homo sapiens) (UniProt P05067); test: Disaggregation of preformed amyloid beta (1 to 42) (unknown origin) aggregation at 2 uM by thioflavin-T fluorescence assay; details: time 24-120 hrs, TDE = time-dependent effect
[18] = target: Amyloid-beta precursor protein (Homo sapiens) (UniProt P05067); test: Inhibition of amyloid beta (1 to 42) (unknown origin) assessed as reduction in peptide aggregation at 0.5 to 2 uM measured at 24 hrs interval for […] by thioflavin-T fluorescence assay; details: dose 0.5-2 µM
[19] = target: Amyloid-beta precursor protein (Homo sapiens) (UniProt P05067); test: Inhibition of amyloid beta (1 to 42) (unknown origin) aggregation at 2 uM measured after 24 hrs by ANS dye based fluorescence assay
[20] = target: Amyloid-beta precursor protein (Homo sapiens) (UniProt P05067); test: Disaggregation of preformed amyloid beta (1 to 42) (unknown origin) aggregation at 2 uM measured after 24 hrs by ANS dye based fluorescence assay
[21] = target: Amyloid-beta precursor protein (Homo sapiens) (UniProt P05067); test: Inhibition of amyloid beta (1 to 42) (unknown origin) aggregation at 2 uM measured after 24 hrs in presence of giant unilamellar vesicles by ANS dye based fluorescence assay
[22] = target: Amyloid-beta precursor protein (Homo sapiens) (UniProt P05067); test: Inhibition of amyloid beta (1 to 42) (unknown origin) aggregation measured after 24 hrs by tyrosine fluorescence assay
[23] = target: Amyloid-beta precursor protein (Homo sapiens) (UniProt P05067); test: Inhibition of amyloid beta (1 to 42) (unknown origin) aggregation assessed as protein with beta sheet conformation at 10 uM measured after 24 hrs by circular dichroism analysis (reference value: 66.4%); parameters: scale not given: the % may be the effect or the level left
[24] = target: Amyloid-beta precursor protein (Homo sapiens) (UniProt P05067); test: Inhibition of amyloid beta (1 to 42) (unknown origin) aggregation assessed as protein with random coil conformation at 10 uM measured after 24 hrs by circular dichroism analysis (reference value: 5%); parameters: scale not given: the % may be the effect or the level left
[25] = tested on: PC-12; test: Cytotoxicity against rat PC-12 cells assessed as reduction in cell viability at 20 uM measured after 6 hrs by MTT assay; type: cell-based; details: pc-12, 6 h
[26] = tested on: Cortical neurone; test: Cytotoxicity against rat primary cortical neuron assessed as reduction in cell viability at 20 uM measured after 6 hrs by MTT assay; type: cell-based
[27] = target: Amyloid-beta precursor protein (Homo sapiens) (UniProt P05067); test: Binding affinity to amyloid beta (1 to 42) (unknown origin) at 10 uM measured after 24 hrs by ESI-HRMS analysis
[28] = target: Amyloid-beta precursor protein (Homo sapiens) (UniProt P05067); test: Binding affinity to amyloid beta (1 to 42) (unknown origin) assessed as amyloid beta (27 to 42)-adduct formation at 10 uM measured after 24 hrs by ESI-HRMS analysis
[29] = target: Amyloid-beta precursor protein (Homo sapiens) (UniProt P05067); test: Binding affinity to amyloid beta (1 to 42) (unknown origin) assessed as absence of fibrillar assembly at 10 uM measured after 24 hrs by HR-TEM analysis
[30] = target: Amyloid-beta precursor protein (Homo sapiens) (UniProt P05067); test: Binding affinity to amyloid beta (1 to 42) (unknown origin) assessed as absence of fibrillar assembly at 10 uM measured after 24 hrs by STEM analysis
[31] = Effective permeability of compound in pH 8 PBS buffer by PAMPA-BBB assay; type: ADME
[32] = Stability of compound in serum (unknown origin) at 5 uM measured up to 12 hrs by HPLC analysis; type: ADME, cell-free; details: read-out: Stabilty
[33] = Stability of compound in serum (unknown origin) assessed as peptide cleavage at 5 uM measured after 24 hrs by MS analysis; type: ADME, cell-free
[34] = target: Amyloid-beta precursor protein (Homo sapiens) (UniProt P05067); test: Inhibition of amyloid beta (1 to 42) (unknown origin) aggregation assessed as protein with turn conformation at 10 uM measured after 24 hrs by circular dichroism analysis (reference value: 11.6%); parameters: scale not given: the % may be the effect or the level left
[35] = target: Amyloid-beta precursor protein (Homo sapiens) (UniProt P05067); test: Disaggregation of preformed amyloid beta (1 to 42) (unknown origin) aggregation at 2 uM measured at 24 hrs interval for 120 hrs by thioflavin-T fluorescence assay relative to control
[36] = target: Amyloid-beta precursor protein (Homo sapiens) (UniProt P05067); test: Disaggregation of preformed amyloid beta (1 to 42) (unknown origin) aggregation at 1 uM measured at 24 hrs interval for 120 hrs by thioflavin-T fluorescence assay relative to control
[37] = target: Amyloid-beta precursor protein (Homo sapiens) (UniProt P05067); test: Disaggregation of preformed amyloid beta (1 to 42) (unknown origin) aggregation at 0.5 uM measured at 24 hrs interval for 120 hrs by thioflavin-T fluorescence assay relative to control
[38] = target: Amyloid-beta precursor protein (Homo sapiens) (UniProt P05067); test: Binding affinity to amyloid beta (1 to 42) (unknown origin) assessed as amyloid beta (25 to 42)-adduct formation at 10 uM measured after 24 hrs by ESI-HRMS analysis
[39] = target: Amyloid-beta precursor protein (Homo sapiens) (UniProt P05067); test: Binding affinity to amyloid beta (1 to 42) (unknown origin) assessed as amyloid beta (2 to 42)-adduct formation at 10 uM measured after 24 hrs by ESI-HRMS analysis

Sequence of Amyloid-beta precursor protein (Homo sapiens) (P05067 whole entry): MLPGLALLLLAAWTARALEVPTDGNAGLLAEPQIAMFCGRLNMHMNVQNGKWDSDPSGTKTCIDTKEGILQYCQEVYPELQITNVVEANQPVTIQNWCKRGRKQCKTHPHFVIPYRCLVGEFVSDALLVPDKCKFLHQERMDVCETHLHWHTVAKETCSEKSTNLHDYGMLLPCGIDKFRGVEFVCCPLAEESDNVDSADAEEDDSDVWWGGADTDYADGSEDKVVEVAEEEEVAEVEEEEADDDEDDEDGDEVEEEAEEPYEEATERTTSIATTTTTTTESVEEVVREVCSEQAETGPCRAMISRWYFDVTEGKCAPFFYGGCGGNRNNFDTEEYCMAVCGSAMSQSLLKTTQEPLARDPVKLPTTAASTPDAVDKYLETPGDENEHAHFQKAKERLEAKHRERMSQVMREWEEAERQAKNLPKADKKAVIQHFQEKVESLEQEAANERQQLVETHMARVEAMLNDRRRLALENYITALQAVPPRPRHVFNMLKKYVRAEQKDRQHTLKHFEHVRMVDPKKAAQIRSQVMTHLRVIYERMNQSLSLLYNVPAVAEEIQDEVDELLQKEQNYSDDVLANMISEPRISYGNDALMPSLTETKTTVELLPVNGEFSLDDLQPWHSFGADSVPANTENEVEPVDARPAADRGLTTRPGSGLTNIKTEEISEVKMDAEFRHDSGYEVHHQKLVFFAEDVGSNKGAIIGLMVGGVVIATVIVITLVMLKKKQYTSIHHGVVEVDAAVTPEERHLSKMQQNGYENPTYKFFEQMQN

inhibition [4] [%] | inhibition [5] [%] | inhibition [6] [%] | RFU [7] [%] | RFU [8] [%] | RFU [9] [%] | inhibition [14] [%] | inhibition [15] [%] | inhibition [16] [%] | Activity [23] [%] | Activity [24] [%] | Activity [29] | Activity [30] | Structure (SMILES) | viability at 10 µM [1] [%] | viability at 4 µM [2] [%] | viability at 2 µM [3] [%] | Activity [10] | viability at 1 µM [11] [%] | viability at 0.5 µM [12] [%] | viability at 0.1 µM [13] [%] | also measured
100 | 100 | 100 | 53.2 | 53.3 | 53 | 74.8 | 68 | 61.2 | 14.2 | 60 | Active | Active | CC[C@H](C)[C@H](NC(=O)[C@@H]1CC2CCCCC2N1C(=O)[C@@H](N)C(C)C)C(=O)N[C@@H](C)C(=O)O (stereo not given in full) (H-V[Oic(3aξ,7aξ)]IA-OH) | 100 | 100 | 100 | Active | 92.3 | 80.5 | 84.9 | Activity [17]: Tde; inhibition [18]: Active; inhibition [19]: Active; Activity [20]: Active; inhibition [21]: Active; inhibition [22]: Active; Activity [25]: Non-Toxic; Activity [26]: Non-Toxic; Activity [27]: Active; Activity [28]: Active; Peff [31]: Permeable; remaining at 12 h, 5 µM [32]: 90%; Stabilty [33]: Unstable
29.1 | 23.8 | 34 | – | – | – | – | – | – | 18.7 | 31.6 | inactive | inactive | CC[C@H](C)[C@H](NC(=O)[C@@H](NC(=O)[C@@H](N)Cc1cccc2ccccc12)C(C)C)C(=O)N[C@@H](C)C(=O)O (H-[1Nal]VIA-OH) | 70.6 | 73.2 | 77 | – | – | – | – | Activity [34]: 45.3%
91.7 | 97.5 | 100 | 57.2 | 54.5 | 53.1 | 83.1 | 81 | 79.9 | 13.6 | 97.6 | Active | Active | CC[C@H](C)[C@H](NC(=O)[C@@H](NC(=O)[C@@H](N)Cc1ccc(F)cc1)C(C)C)C(=O)N[C@@H](C)C(=O)O (H-[Phe(4-F)]VIA-OH) | 100 | 100 | 100 | Active | 97.2 | 83.1 | 79.3 | inhibition [35]: 61%; inhibition [36]: 42.5%; inhibition [37]: 32.1%; Activity [17]: Tde; inhibition [18]: Active; inhibition [19]: Active; Activity [20]: Active; inhibition [21]: Active; inhibition [22]: Active; Activity [25]: Non-Toxic; Activity [26]: Non-Toxic; Activity [38]: Active; Activity [39]: Active; Peff [31]: Permeable; remaining at 12 h, 5 µM [32]: 90%; Stabilty [33]: Unstable
